# Measured values from article PMC11859928, “Design, Synthesis, and Antiproliferative Activity of Novel Indole/1,2,4-Triazole Hybrids as Tubulin Polymerization Inhibitors” (Pharmaceuticals, 2025).
# Read-outs that look alike come from different tables or passages of the source.
# Legend:
# [1] = system: Non-small cell lung cancer subpanel; assay: NCI five-dose assay, subpanel mean; assay type: cell-based, human
# HT29 = assay: NCI five-dose assay; assay type: cell-based, human; details: HT29, five dose levels
# SNB-19 = assay: NCI five-dose assay; assay type: cell-based, human; details: SNB-19, five dose levels
# T-47D = assay: NCI five-dose assay; assay type: cell-based, human; details: five dose levels
# LOX IMVI = assay: NCI five-dose assay; assay type: cell-based, human; details: five dose levels
# HCC-2998 = assay: NCI five-dose assay; assay type: cell-based, human; details: Homo sapiens, HCC-2998, five dose levels
# MCF7 = assay: NCI five-dose assay; assay type: cell-based, human; details: MCF7, five dose levels
# UO-31 = assay: NCI five-dose assay; assay type: cell-based, human; details: UO-31, five dose levels
# tubulin = molecular target: T1, tubulin (Sus scrofa, UniProt P02550+P02554); assay: Tubulin polymerization inhibitory assay; assay type: biochemical
# T1 construct: purchased Cytoskeleton Inc., Denver, CO, USA
# T1 sequence (P02554 whole entry): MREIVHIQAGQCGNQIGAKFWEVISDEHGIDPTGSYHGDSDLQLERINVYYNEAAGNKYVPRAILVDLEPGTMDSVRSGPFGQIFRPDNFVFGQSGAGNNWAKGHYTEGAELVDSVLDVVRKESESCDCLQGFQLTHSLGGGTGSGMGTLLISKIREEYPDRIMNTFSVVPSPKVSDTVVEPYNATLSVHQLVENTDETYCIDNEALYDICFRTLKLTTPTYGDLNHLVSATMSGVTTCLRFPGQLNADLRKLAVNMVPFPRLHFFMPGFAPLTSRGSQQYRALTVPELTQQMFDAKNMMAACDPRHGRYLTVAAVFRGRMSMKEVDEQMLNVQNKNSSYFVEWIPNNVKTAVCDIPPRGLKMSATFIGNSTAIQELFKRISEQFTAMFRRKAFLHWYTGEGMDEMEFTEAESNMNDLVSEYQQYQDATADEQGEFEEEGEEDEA
# T1 sequence (P02550 whole entry): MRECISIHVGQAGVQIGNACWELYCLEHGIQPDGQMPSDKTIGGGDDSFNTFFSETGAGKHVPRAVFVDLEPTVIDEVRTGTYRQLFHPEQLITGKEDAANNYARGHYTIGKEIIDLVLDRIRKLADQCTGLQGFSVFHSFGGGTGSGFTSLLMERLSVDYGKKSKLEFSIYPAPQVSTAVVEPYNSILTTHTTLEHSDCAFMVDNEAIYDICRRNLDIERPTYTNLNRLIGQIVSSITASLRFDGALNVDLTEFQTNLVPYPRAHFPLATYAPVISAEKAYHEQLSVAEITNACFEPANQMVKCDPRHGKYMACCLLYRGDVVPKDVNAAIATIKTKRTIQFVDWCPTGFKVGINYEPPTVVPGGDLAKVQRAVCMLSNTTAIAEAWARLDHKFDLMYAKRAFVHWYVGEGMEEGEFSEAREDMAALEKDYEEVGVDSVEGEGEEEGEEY
# In short: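 Compound effects on tubulin polymerization were measured with the Tubulin Polymerization Assay Kit (Cytoskeleton Inc., Denver, CO, USA), run as the supplier instructs, which detects polymerization through enhancement of a fluorescent reporter. Docetaxel served as the stabilizing control and vincristine as the destabilizing control, each at 3 µM in PBS.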
# UACC-257 = assay: NCI five-dose assay; assay type: cell-based, human; details: UACC-257, five dose levels
# HL-60(TB) = assay: NCI five-dose assay; assay type: cell-based, human; details: five dose levels
# MDA-MB-468 = assay: NCI five-dose assay; assay type: cell-based, human; details: MDA-MB-468, five dose levels
# BT-549 = assay: NCI five-dose assay; assay type: cell-based, human; details: BT-549, five dose levels
# HCT-116 = assay: NCI five-dose assay; assay type: cell-based, human; details: HCT-116, five dose levels
# SK-OV-3 = assay: NCI five-dose assay; assay type: cell-based, human; details: Homo sapiens, SK-OV-3, five dose levels
# NCI-H522 = assay: NCI five-dose assay; assay type: cell-based, human; details: NCI-H522, five dose levels
# NCI/ADR-RES = assay: NCI five-dose assay; assay type: cell-based, human; details: five dose levels
# NCI-H460 = assay: NCI five-dose assay; assay type: cell-based, human; details: NCI-H460, five dose levels
# CNS cancer subpanel = assay: NCI five-dose assay, subpanel mean; assay type: cell-based, human
# PC-3 = assay: NCI five-dose assay; assay type: cell-based, human; details: PC-3, five dose levels
# SN12C = assay: NCI five-dose assay; assay type: cell-based, human; details: five dose levels
# MDA/MB-231-ATCC = assay: NCI five-dose assay; assay type: cell-based, human; details: five dose levels
# HCT-15 = assay: NCI five-dose assay; assay type: cell-based, human; details: HCT-15, five dose levels
# 786-0 = assay: NCI five-dose assay; assay type: cell-based, human; details: 786-0, five dose levels
# UACC-62 = assay: NCI five-dose assay; assay type: cell-based, human; details: UACC-62, five dose levels
# [2] = Homo sapiens, read-out: GI50 Conc. per Cell Lines
# [3] = Homo sapiens, read-out: LC50 (the source's name)
# [4] = read-out: GI50 Conc. per Cell Lines
# [5] = read-out: LC50 (the source's name)
compound,measurement,setting,value
"O/N=C(\CSc1nnc(-c2c[nH]c3ccccc23)n1-c1ccccc1)c1ccc(Cl)cc1 [Compound 7j, (Z)-2-((5-(1H-Indol-3-yl)-4-phenyl-4H-1,2,4-triazol-3-yl)thio)-1-(4-chlorophenyl) Ethanone Oxime]",GI50,"[1]; Homo sapiens, Non-small cell lung cancer, average sensitivity of all cell lines of the subpanel, read-out: GI50 Subpanel MID b",3.86 µM
same,GI50 Selectivity Ratio (MID a/MID b),[1]; Non-small cell lung cancer subpanel,0.945
same,TGI Conc. per Cell Lines,HT29,11.8 µM
same,GI50,"HT29; Homo sapiens, HT-29, read-out: GI50 Conc. per Cell Lines",3.04 µM
same,CC50,"HT29; Homo sapiens, HT-29, read-out: LC50 (the source's name)",> 100 µM
same,GI50,SNB-19; [2],6.89 µM
same,CC50,SNB-19; [3],> 100 µM
same,TGI Conc. per Cell Lines,SNB-19,45.2 µM
same,LC50 (concentration killing 50% of cells),"T-47D; Homo sapiens, T47D",> 100 µM
same,GI50,"T-47D; Homo sapiens, T47D, read-out: GI50 Conc. per Cell Lines",3.6 µM
same,TGI Conc. per Cell Lines,T-47D,31.4 µM
same,GI50,LOX IMVI; [2],1.72 µM
same,CC50,LOX IMVI; [3],17.4 µM
same,TGI Conc. per Cell Lines,LOX IMVI,3.12 µM
same,GI50,HCC-2998; [4],4.74 µM
same,CC50,HCC-2998; [5],> 100 µM
same,LC50,MCF7; Homo sapiens,22.5 µM
same,GI50,MCF7; [2],3.63 µM
same,TGI Conc. per Cell Lines,MCF7,21.6 µM
same,GI50,UO-31; [2],2.88 µM
same,CC50,UO-31; [3],71.1 µM
same,TGI Conc. per Cell Lines,UO-31,15.7 µM
same,%inhibition,tubulin; conc 0.01 (unit not given; IC50 from this curve in µg/ml),5.23%
same,%inhibition,tubulin; conc 0.1 (unit not given; IC50 from this curve in µg/ml),15.6%
same,%inhibition,tubulin; conc 1 (unit not given; IC50 from this curve in µg/ml),34.8%
same,%inhibition,tubulin; conc 10 (unit not given; IC50 from this curve in µg/ml),58.9%
same,%inhibition,tubulin; conc 100 (unit not given; IC50 from this curve in µg/ml),87.6%
same,IC50,tubulin; read-out: Tub. IC50±SD (converted),6.26 µM
same,IC50,"tubulin; read-out: Tubulin Inhibitory Effect, IC50",6.26 ± 0.15 µM
same,GI50,UACC-257; [2],4.67 µM
same,CC50,UACC-257; [3],> 100 µM
same,TGI Conc. per Cell Lines,UACC-257,87.8 µM
same,GI50,HL-60(TB); [2],2.17 µM
same,CC50,HL-60(TB); [3],> 100 µM
same,TGI Conc. per Cell Lines,HL-60(TB),6.34 µM
same,LC50,MDA-MB-468; Homo sapiens,46 µM
same,GI50,MDA-MB-468; [2],1.72 µM
same,TGI Conc. per Cell Lines,MDA-MB-468,3.47 µM
same,TGI Conc. per Cell Lines,BT-549,11.1 µM
same,GI50,BT-549; [2],3.71 µM
same,CC50,BT-549; [3],6.28 µM
same,TGI Conc. per Cell Lines,HCT-116,13.7 µM
same,GI50,HCT-116; [2],2.92 µM
same,CC50,HCT-116; [3],> 100 µM
same,GI50,SK-OV-3; [4],3.38 µM
same,CC50,SK-OV-3; [5],71.4 µM
same,GI50,NCI-H522; [2],3.11 µM
same,CC50,NCI-H522; [3],81.7 µM
same,TGI Conc. per Cell Lines,NCI-H522,12.5 µM
same,LC50,NCI/ADR-RES; Homo sapiens,> 100 µM
same,GI50,NCI/ADR-RES; [2],2.95 µM
same,TGI Conc. per Cell Lines,NCI/ADR-RES,9.50 µM
same,GI50,NCI-H460; [2],3.33 µM
same,CC50,NCI-H460; [3],> 100 µM
same,TGI Conc. per Cell Lines,NCI-H460,15.7 µM
same,GI50 Selectivity Ratio (MID a/MID b),CNS cancer subpanel; CNS cancer subpanel,0.763
same,GI50,"CNS cancer subpanel; Homo sapiens, CNS cancer, average sensitivity of all cell lines of the subpanel, read-out: GI50 Subpanel MID b",4.78 µM
same,GI50,PC-3; [2],2.31 µM
same,CC50,PC-3; [3],> 100 µM
same,TGI Conc. per Cell Lines,PC-3,7.29 µM
same,GI50,SN12C; [2],3.79 µM
same,CC50,SN12C; [3],> 100 µM
same,TGI Conc. per Cell Lines,SN12C,16.3 µM
same,LC50,MDA/MB-231-ATCC; Homo sapiens,> 100 µM
same,GI50,MDA/MB-231-ATCC; [2],1.87 µM
same,TGI Conc. per Cell Lines,MDA/MB-231-ATCC,3.66 µM
same,TGI Conc. per Cell Lines,HCT-15,13.6 µM
same,GI50,HCT-15; [2],3.2 µM
same,CC50,HCT-15; [3],> 100 µM
same,TGI Conc. per Cell Lines,786-0,>100 µM
same,LC50 (50% lethal concentration),786-0; Homo sapiens,93.5 µM
same,GI50,786-0; [2],7.29 µM
same,GI50,UACC-62; [2],2.62 µM
same,CC50,UACC-62; [3],> 100 µM
same,TGI Conc. per Cell Lines,UACC-62,10.1 µM
